Source: US20040023295A1, “Methods and systems for analyzing complex biological systems” (priority 2001, published 2004)

Tested on: Saccharomyces cerevisiae wild type strain BY4743
Assay: Yeast azole drug experiment AF1: metabolite analysis (GC-MS, LC-MS)
Format: cell-based

C[C@@H]1[C@H](O)[C@@H](C)/C=C/C=C/C=C/C=C/C=C/C=C/C=C/[C@H](O[C@@H]2O[C@H](C)[C@@H](O)[C@H](N)[C@@H]2O)C[C@@H]2O[C@](O)(C[C@@H](O)C[C@@H](O)[C@H](O)CC[C@@H](O)C[C@@H](O)CC(=O)O[C@H]1C)C[C@H](O)[C@H]2C(=O)O [Amphoteracin B]
Fold Change urocanic acid (nLC): 0 | Fold Change xanthosine-DiH2O (nLC): 0 | Fold Change zeatin (nLC): 0 | Fold Change urocanic acid (pLC): 0 | Fold Change xanthosine (diH2O) (pLC): 0 | Fold Change zeatin (pLC): 0 | Fold Change of metabolite disaccaride2 (platform GC, p-Value 0.000388379): −0.9977 | Fold Change of metabolite disaccaride3 (platform GC, p-Value 0.000700744): −0.9977 | Fold Change of metabolite tms glutamine3 (platform GC, p-Value 0.003279434): −0.8935 | Fold Change of metabolite phenylalanine (platform GC, p-Value 0.010760299): −0.9797 | Fold Change of metabolite ornithine3 (platform GC, p-Value 0.011300115): −0.9853 | Fold Change of metabolite TMS mevalonic acid lactone (platform GC, p-Value 0.012983194): −0.9767 | Fold Change of metabolite malic acid (platform GC, p-Value 0.015444108): −0.963 | Fold Change of metabolite leucine (platform GC, p-Value 0.015876175): −0.9443 | Fold Change of metabolite glutamine (platform GC, p-Value 0.019324613): −0.9116 | Fold Change of metabolite sugar? (platform GC, p-Value 0.019518223): −0.933 | Fold Change of metabolite isoleucine (platform GC, p-Value 0.021030517): −0.9533 | Fold Change of metabolite aspartic acid (platform GC, p-Value 0.024172801): −0.9743 | Fold Change of metabolite tms tyrosine3 (platform GC, p-Value 0.029953667): −0.9473 | Fold Change of metabolite tms lysine4 (platform GC, p-Value 0.032217789): −0.9783 | Fold Change of metabolite glycanopyrose (platform GC, p-Value 0.041202857): −0.958 | Fold Change of metabolite alanine (platform GC, p-Value 0.054639399): −0.7773 | Fold Change of metabolite threonine3 (platform GC, p-Value 0.063199416): −0.8933 | Fold Change of metabolite threonine2 (platform GC, p-Value 0.073159868): −0.8553 | Fold Change of metabolite glycerol (platform GC, p-Value 0.089234962): −0.815 | Fold Change of metabolite ergosterol (platform GC, p-Value 0.114118055): 2.303 | Fold Change of metabolite fucosterol (platform GC, p-Value 0.186711806): −0.6553 | Fold Change of metabolite iso citric acid (platform GC, p-Value 0.233348939): −0.6183 | Fold Change of metabolite squalene (platform GC, p-Value 0.254158772): −0.5745 | Fold Change of metabolite oleic acid (platform GC, p-Value 0.325422554): −0.4593 | Fold Change of metabolite glycine (platform GC, p-Value 0.431923912): 0.8807 | Fold Change of metabolite lysine (platform GC, p-Value 0.488896519): −0.3925 | Fold Change of metabolite palmiteliadic acid (platform GC, p-Value 0.503020409): 0.515 | Fold Change of metabolite tms tyrosine2 (platform GC, p-Value 0.601581614): −0.3593 | Fold Change of metabolite octadecanoic acid (platform GC, p-Value 0.660192025): 0.21 | Fold Change of metabolite mevalonic acid lactone (platform GC, p-Value 0.690626296): −0.1276 | Fold Change of metabolite pyrimidine (platform GC, p-Value 0.744108261): −0.185 | Fold Change of metabolite tetradecanoic acid (platform GC, p-Value 0.793963653): 0.07967 | Fold Change of metabolite hexadecanoic acid (platform GC, p-Value 0.921125845): −0.2427 | Fold Change of metabolite phosphate (platform GC, p-Value 0.983733869): −0.007333 | Fold Change of metabolite campesterol (platform GC, p-Value 1): 0 | Fold Change of metabolite desmosterol (platform GC, p-Value 1): 0 | Fold Change of metabolite ornithine2 (platform GC, p-Value 1.48992E−05): −1 | Fold Change of metabolite asparagine (platform GC, p-Value 6.41E−06): −1 | Fold Change of metabolite disaccaride1 (platform GC, p-Value 7.54E−06): −1 | Fold Change of metabolite lanosterol (platform GC, p-Value 7.71E−06): −1 | Fold Change of metabolite kinetin (platform nLC (first kinetin line), p-Value 1): 0 | Fold Change of metabolite kinetin (platform nLC (second kinetin line), p-Value 1): 0 | Fold Change of metabolite cytidine (platform nLC, p-Value 0.000680198): −0.9986 | Fold Change of metabolite isocitric/citric/qu (platform nLC, p-Value 0.027544382): 2.549 | Fold Change of metabolite lactic acid (platform nLC, p-Value 0.077524891): −0.02583 | Fold Change of metabolite allantoin (platform nLC, p-Value 0.149169352): 3.97 | Fold Change of metabolite orotic acid (platform nLC, p-Value 0.186179266): 8380 | Fold Change of metabolite succinic (platform nLC, p-Value 0.193450596): 0.8663 | Fold Change of metabolite 3-indolylacetonitri (platform nLC, p-Value 0.197015297): −0.9998 | Fold Change of metabolite citrulline (platform nLC, p-Value 0.217809679): 1659 | Fold Change of metabolite 2-ketobutyric acid (platform nLC, p-Value 0.225631474): −0.9992 | Fold Change of metabolite sucrose (platform nLC, p-Value 0.225682636): 0.4493 | Fold Change of metabolite fumaric/3m2oxobutan (platform nLC, p-Value 0.238894937): 0.4423 | Fold Change of metabolite glucosamine6PO4 (platform nLC, p-Value 0.273438701): −0.9951 | Fold Change of metabolite gallic acid (platform nLC, p-Value 0.29960644): 0.1622 | Fold Change of metabolite arginine (platform nLC, p-Value 0.315413423): −0.4885 | Fold Change of metabolite biotin (platform nLC, p-Value 0.363209057): 1.077 | Fold Change of metabolite nopaline (platform nLC, p-Value 0.369522244): 0.3342 | Fold Change of metabolite hypoxanthine (platform nLC, p-Value 0.372039959): 0.1655 | Fold Change of metabolite tryptophan (platform nLC, p-Value 0.380816515): 1.142 | Fold Change of metabolite DLaminoadipic acid (platform nLC, p-Value 0.40985594): 1.411 | Fold Change of metabolite inostol/glucos/sorb (platform nLC, p-Value 0.41837757): −0.5905 | Fold Change of metabolite guanosine (platform nLC, p-Value 0.425021511): 1.131 | Fold Change of metabolite caffeic acid (platform nLC, p-Value 0.427037943): −0.5882 | Fold Change of metabolite ornithine (platform nLC, p-Value 0.473753211): 2.534 | Fold Change of metabolite malic acid (platform nLC, p-Value 0.497517178): 0.6212 | Fold Change of metabolite proline (platform nLC, p-Value 0.518220081): 0.4603 | Fold Change of metabolite 2-ketoglutaric (platform nLC, p-Value 0.622408732): 8.791 | Fold Change of metabolite alanine (platform nLC, p-Value 0.62524207): 0.1599 | Fold Change of metabolite sorbitol/mannitol (platform nLC, p-Value 0.68492695): 0.2162 | Fold Change of metabolite aspartic (platform nLC, p-Value 0.703732114): 0.2407 | Fold Change of metabolite pyridoxine (platform nLC, p-Value 0.708651225): −0.1294 | Fold Change of metabolite selenoDL-methionine (platform nLC, p-Value 0.711447529): 0.8515 | Fold Change of metabolite glutamic/acetylseri (platform nLC, p-Value 0.733962176): 0.1414 | Fold Change of metabolite asparagine (platform nLC, p-Value 0.758489047): 0.1511 | Fold Change of metabolite phenylalanine (platform nLC, p-Value 0.76165051): −0.1906 | Fold Change of metabolite leucine/isoleucine/ (platform nLC, p-Value 0.763305915): 0.1319 | Fold Change of metabolite serine (platform nLC, p-Value 0.766811518): 0.1091 | Fold Change of metabolite threonine/homoserin (platform nLC, p-Value 0.769444989): 0.1267 | Fold Change of metabolite allantoic acid (platform nLC, p-Value 0.777964345): −0.1456 | Fold Change of metabolite tetradecanoic acid (platform nLC, p-Value 0.782765706): −0.07723 | Fold Change of metabolite 4aminobutyrate/dimg (platform nLC, p-Value 0.820379809): −0.1983 | Fold Change of metabolite decanoic acid (platform nLC, p-Value 0.824169685): −0.08716 | Fold Change of metabolite glutamine/lysine (platform nLC, p-Value 0.835677767): 0.07919 | Fold Change of metabolite NacetylL-glutamate (platform nLC, p-Value 0.840704909): −0.1078 | Fold Change of metabolite menthol* (platform nLC, p-Value 0.852876357): −0.07013 | Fold Change of metabolite pipecolic acid (platform nLC, p-Value 0.871015411): 0.08112 | Fold Change of metabolite sugar-phosphate (platform nLC, p-Value 0.878141701): −0.1067 | Fold Change of metabolite oleic acid (platform nLC, p-Value 0.880270386): 0.689 | Fold Change of metabolite aconitic acid (platform nLC, p-Value 0.891314692): 0.5426 | Fold Change of metabolite palmitic acid (platform nLC, p-Value 0.90280612): 0.3979 | Fold Change of metabolite nicotinic acid (platform nLC, p-Value 0.972130606): 0.3131 | Fold Change of metabolite lauric acid (platform nLC, p-Value 0.972245476): 0.1225 | Fold Change of metabolite 4-methylcatechol (platform nLC, p-Value 1): 0
